Seven substances from US7803930B2, “Antisense modulation of apolipoprotein B-expression” (Isis Pharmaceuticals, Inc., priority 2002, dated 2010) can be followed below.

In the oligonucleotide strings, read from the 5' end, every base follows the letter of its sugar. An asterisk marks phosphorothioate; unmarked linkages are phosphodiester. Other units and linkages are bracketed, terminal groups are in braces. A string of capitals states the bases alone. e = 2'-O-(2-methoxyethyl) (MOE); [5mC] = 5-methylcytosine; d = 2'-deoxy (DNA)

One data set relates to lipoprotein(a). Put plainly: Lipoprotein(a) particle secretion from primary human hepatocytes, ELISA. To be noted: 24 hours. Type of data set: cell-based. The procedure:
Primary human hepatocytes (InVitro Technologies, Baltimore, Md.), cultured and transfected as described herein, were treated for 24 hours with 50 or 150 nM of ISIS 271009 (SEQ ID NO: 319), 281625 (SEQ ID NO: 224), 301012 (SEQ ID NO: 247) or 301027 (SEQ ID NO: 262). Cells were also treated with 150 nM of the control oligonucleotides ISIS 113529 (SEQ ID NO: 859) or ISIS 13650 (SEQ ID NO: 806). Untreated cells served as a control. Following 24 hours of oligonucleotide treatment, the amount of lipoprotein(a) in the culture medium collected from the treated cells was measured using a commercially available ELISA kit (ALerCHEK Inc., Portland, Me.). The results are the average of three experiments and are expressed as percent change in lipoprotein(a) secretion relative to untreated controls.

In data set [1] the test system is human apolipoprotein B mRNA. As to the kind of experiment: Inhibition of human apolipoprotein B mRNA levels in HepG2 cells, quantitative real-time PCR. In kind it is cell-based. To be noted: for % inhibition of apolipoprotein B mRNA levels / % inhibition 37 nM / % inhibition 75 nM / % inhibition 150 nM / % inhibition 300 nM: normalized to untreated control; for % inhibition of apolipoprotein B mRNA levels: average of two experiments; for % inhibition 37 nM / % inhibition 75 nM / % inhibition 150 nM / % inhibition 300 nM: Table 19 dose response; for % INHIB (inhibition of human apolipoprotein B mRNA levels): HepG2 cells treated with 150 nM of compound, quantitative real-time PCR. The method, boiled down: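 Apolipoprotein B transcript was quantified by one-step TaqMan RT-PCR, normalized to GAPDH or RiboGreen RNA, and expressed as percent inhibition against an untreated-sample standard curve. HepG2 cells were harvested 16-24 h after oligonucleotide exposure, which was delivered with 3.75 μg/mL Lipofectin over 4-7 h at 80% confluency.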

In data set [2] the test system is human apolipoprotein B mRNA. Put plainly: C57BL/6NTac-TgN(APOB100) transgenic mice, 8 weeks (Example 47): human apolipoprotein B mRNA in liver. To be noted: C57BL/6NTac-TgN(APOB100) mice, 25 mg/kg i.p. twice a week, eight weeks; for mRNA % control, human mRNA: liver. Type of data set: in vivo, human transgene in mouse. The method, then: (§1) C57BL/6NTac-TgN(APOB100) mice were divided into two groups—one group receiving oligonucleotide treatment and control animals receiving saline treatment. After overnight fasting, mice were dosed intraperitoneally twice a week with saline or 25 mg/kg ISIS 281625 (SEQ ID No: 224) or ISIS 301012 (SEQ ID No: 247) for eight weeks. At study termination and forty eight hours after the final injections, animals were sacrificed and evaluated for target mRNA levels in liver, cholesterol and triglyceride levels, and liver enzyme levels. In addition, the endogenous mouse apolipoprotein B levels in liver were measured to evaluate any effects of these antisense oligonucletides targeted to the human apolipoprotein B.

The test system of data set [3] is endogenous mouse apolipoprotein B. As to the kind of experiment: C57BL/6NTac-TgN(APOB100) transgenic mice, 8 weeks (Example 47): endogenous mouse apolipoprotein B mRNA in liver. In kind it is in vivo. To be noted: C57BL/6NTac-TgN(APOB100) mice, 25 mg/kg i.p. twice a week, eight weeks; for mRNA % control, mouse mRNA: liver; for levels of the endogenous mouse apolipoprotein B in liver: specificity. The procedure:
as §1

A short description of data set [4]: C57BL/6NTac-TgN(APOB100) transgenic mice (Example 47): liver enzyme, cholesterol, LDL-cholesterol and triglyceride levels. Type of data set: in vivo, mouse. To be noted: C57BL/6NTac-TgN(APOB100) mice, 25 mg/kg i.p. twice a week, eight weeks; for AST and ALT levels: normal levels ~300 IU/L. The method, then:
as §1

Where [5] appears, read: HepG2 cells, 12.5 nM oligonucleotide.
[6] abbreviates: HepG2 cells, 37 nM oligonucleotide.
The mark [7] stands for this setting: HepG2 cells, 75 nM oligonucleotide.
Setting [8] is: HepG2 cells, 150 nM oligonucleotide.
Setting [9] is: HepG2 cells, 300 nM oligonucleotide.

As to “113529 (antisense e[5mC]*eT*e[5mC]*eT*eT*dA*d[5mC]*dT*dG*dT*dG*d[5mC]*dT*dG*dT*eG*eG*eA*e[5mC]*eA) [compound 113529]”, the “% Change in lipoprotein(a) secretion” value in the data set with lipoprotein(a) (150 nM) is reported as “+14%”.

In the case of “271009 (antisense eG*e[5mC]*e[5mC]*eT*e[5mC]*dA*dG*dT*d[5mC]*dT*dG*d[5mC]*dT*dT*d[5mC]*eG*e[5mC]*eG*e[5mC]*e[5mC]) [compound 271009]”, the “% inhibition of apolipoprotein B mRNA levels” value is listed as 67% in data set [1] (setting [5]); 86% in data set [1] (setting [6]); 92% in data set [1] (setting [7]); 94% in data set [1] (setting [8]); 95% in data set [1] (setting [9]). Also, the “% INHIB” value in data set [1] (Table 12, HepG2 cells, 150 nM, averages from two experiments) was 75%. Also, the “% inhibition 37 nM” value in data set [1] (HepG2 cells) is 82%. Moreover, the “% inhibition 75 nM” value in data set [1] (HepG2 cells) was 91%. Further, the “% inhibition 150 nM” value in data set [1] (HepG2 cells, 150 nM) was 94%. Also, the “% inhibition 300 nM” value in data set [1] (HepG2 cells) amounted to 96%. For the same substance, the “% Change in lipoprotein(a) secretion” value in the data set on lipoprotein(a) (50 nM) was −25%; with lipoprotein(a) (150 nM), −42%.

As for “281625 (antisense eA*eG*eG*eT*eT*dA*d[5mC]*d[5mC]*dA*dG*d[5mC]*d[5mC]*dA*d[5mC]*dA*eT*eG*e[5mC]*eA*eG) [compound 281625]”, in data set [1] (averages from two experiments), the “% INHIB (inhibition of human apolipoprotein B mRNA levels)” value turned out to be 94%. In data set [1] (setting [5]), the “% inhibition of apolipoprotein B mRNA levels” value is reported as 44%. For the same substance, the “% inhibition of apolipoprotein B mRNA levels” value in data set [1] (setting [6]) is recorded as 66%. In addition, the “% inhibition of apolipoprotein B mRNA levels” value in data set [1] (setting [7]) came out at 83%. Further, the “% inhibition of apolipoprotein B mRNA levels” value in data set [1] (setting [8]) was determined as 85%. Also, in data set [1] (setting [9]), the “% inhibition of apolipoprotein B mRNA levels” value is reported as 94%. Also, in data set [1] (HepG2 cells), the “% inhibition 37 nM” value came out at 62%, the “% inhibition 75 nM” value came out at 76% and the “% inhibition 300 nM” value is 94%. In data set [1] (HepG2 cells, 150 nM), the “% inhibition 150 nM” value is 84%. For the same substance, the “mRNA % control, human mRNA” value in data set [2] was determined as 45.2 % control. For the same substance, in data set [3], the “mRNA % control, mouse mRNA” value was found to be 111.0 % control. Besides, in data set [4], the “Lipoproteins CHOL” value amounted to 152.0 mg/dL, the “Lipoproteins HDL” value turned out to be 84.6 mg/dL, the “Lipoproteins LDL” value was found to be 49.8 mg/dL and the “Lipoproteins TRIG” value is reported as 171.1 mg/dL. Also, in data set [4], the “Liver Enzymes ALT” value came to 363.8 IU/L and the “Liver Enzymes AST” value is 265.8 IU/L. Further, in the data set with lipoprotein(a) (50 nM), the “% Change in lipoprotein(a) secretion” value is recorded as −26%. In the data set with lipoprotein(a) (150 nM), the “% Change in lipoprotein(a) secretion” value is −24%.

With “301012 (eG*e[5mC]*e[5mC]*eT*e[5mC]*dA*dG*dT*d[5mC]*dT*dG*d[5mC]*dT*dT*d[5mC]*eG*e[5mC]*eA*e[5mC]*e[5mC]) [compound 301012]”, the “% INHIB (inhibition of human apolipoprotein B mRNA levels)” value in data set [1] (averages from two experiments) stood at 87%. Also, the “% inhibition of apolipoprotein B mRNA levels” value is 63% in data set [1] (setting [5]); 79% in data set [1] (setting [6]); 90% in data set [1] (setting [7]); 92% in data set [1] (setting [8]); 95% in data set [1] (setting [9]). For the same substance, the “% Change in apolipoprotein B mRNA expression” value in data set [1] (HepG2 cells, 10 nM, 24 hour (Table 41)) is −51%; in data set [1] (HepG2 cells, 50 nM, 24 hour (Table 40)), −44%; in data set [1] (HepG2 cells, 50 nM, 24 hour (Table 41)), −72%; in data set [1] (HepG2 cells, 150 nM, 24 hour (Table 40)), −75%; in data set [1] (HepG2 cells, 150 nM, 24 hour (Table 41)), −92%. In addition, the “mRNA % control, human mRNA” value in data set [2] is listed as 23.7 % control. Further, the “mRNA % control, mouse mRNA” value in data set [3] is recorded as 94.6 % control. Also, in data set [4], the “Lipoproteins CHOL” value amounted to 145.1 mg/dL. In addition, the “Lipoproteins HDL” value in data set [4] is reported as 98.6 mg/dL. Also, the “Lipoproteins LDL” value in data set [4] came out at 36.6 mg/dL. Moreover, in data set [4], the “Lipoproteins TRIG” value is on record as 157.8 mg/dL. Besides, in data set [4], the “Liver Enzymes ALT” value came to 137.4 IU/L. For the same substance, the “Liver Enzymes AST” value in data set [4] is 208.4 IU/L. In addition, the “% Change in lipoprotein(a) secretion” value in the data set with lipoprotein(a) (50 nM) was −27%; in the data set with lipoprotein(a) (150 nM), −37%.

On to “301027 (eG*e[5mC]*eT*e[5mC]*eA*d[5mC]*dT*dG*dT*dA*dT*dG*dG*dT*dT*eT*eT*eA*eT*e[5mC]; antisense) [compound 301027]”, for which the “% INHIB (inhibition of human apolipoprotein B mRNA levels)” value in data set [1] (averages from two experiments) stood at 89%. Also, in data set [1] (HepG2 cells), the “% inhibition 37 nM” value amounted to 80%, the “% inhibition 75 nM” value is reported as 90% and the “% inhibition 300 nM” value was found to be 96%. In data set [1] (HepG2 cells, 150 nM), the “% inhibition 150 nM” value is given as 95%. The “% Change in lipoprotein(a) secretion” value in the data set on lipoprotein(a) (50 nM) is recorded as −33%. Further, the “% Change in lipoprotein(a) secretion” value with lipoprotein(a) (150 nM) was −44%.

With “ISIS 281625: SEQ ID NO: 224, 2′-MOE gapmer targeted to human apolipoprotein B (antisense eA*eG*eG*eT*eT*dA*d[5mC]*d[5mC]*dA*dG*d[5mC]*d[5mC]*dA*d[5mC]*dA*eT*eG*e[5mC]*eA*eG)”, the “mRNA levels of the human apolipoprotein B in liver” value in data set [2] was “markedly decreased”. In addition, the “levels of the endogenous mouse apolipoprotein B in liver” value in data set [3] is listed as “unaffected”. Also, in data set [4], the “Cholesterol levels relative to saline treatment” value is on record as “slightly increased”; the “triglyceride levels relative to saline treatment” value is given as “slightly decreased”; the “AST and ALT levels” value is on record as “increased, yet did not exceed normal levels”.

For the substance “ISIS 301012: SEQ ID NO: 247, antisense oligonucleotide targeted to human apolipoprotein B (antisense GCCTCAGTCTGCTTCGCACC; chemistry not given here)”, in data set [2], the “mRNA levels of the human apolipoprotein B in liver” value is recorded as “markedly decreased”. In addition, the “levels of the endogenous mouse apolipoprotein B in liver” value in data set [3] is listed as “unaffected”. For the same substance, in data set [4], the “Cholesterol levels relative to saline treatment” value is “slightly increased”; the “triglyceride levels relative to saline treatment” value is recorded as “slightly decreased”; the “AST and ALT levels” value is reported as “increased, yet did not exceed normal levels”.
